Common to all, as to assay: NCI anticancer screen, dose series, 48 h
Experiment [1] relates to NCI-H226 lung.
In experiment [2] the test system is ACHN renal.
For experiment [3], the system named is EKVX NSCLC.
Experiment [4] relates to NCI-H522 lung.
For experiment [5], the system named is KM12 colon.
Experiment [6] has as its system SW-620 colon.
Experiment [7] relates to NCI-H23 lung.
Experiment [8] relates to MCF7 breast.
Experiment [9] concerns A549 NSCLC.
The test system of experiment [10] is U251 CNS.

This passage reports GI50 and TGI results from PubChem BioAssay (NCI).

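1) Cells in 96-well plates. 2) Compound, 48 h, 5 concentrations. 3) Linear interpolation between surrounding doses. 4) Unreached endpoint = highest concentration. GI50 = concentration required for 50% inhibition of growth. TGI is the concentration that stops growth completely.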

For `COc1ccc2c(c1)c(=O)oc1cc(OC/C(=N\O)c3ccc(F)cc3)ccc12`, the GI50 in [1] is 37 µM; in experiment [2], 21 µM; in experiment [3], 30.2 µM; in experiment [4], 14.9 µM; in [5] it was 19.7 µM; in [6], 26.4 µM. Also, the GI50 in experiment [7] is 20.4 µM; in experiment [8], 19.8 µM; in [9], 27.8 µM; in experiment [10], 20.2 µM. Moreover, the TGI is above 100 µM in experiment [1]; 55.4 µM in experiment [2]; above 100 µM in [3]; 37.8 µM in experiment [4]; 43.8 µM in experiment [5]; 96.3 µM in [6]. Also, the TGI is 54.3 µM in experiment [7], 66 µM in experiment [8], above 100 µM in [9] and 48.1 µM in experiment [10].
For the compound `COc1cc2c(/C=C3/C(=O)Nc4c3ccc3ccccc43)c(Cl)[nH]c2cc1C`, the GI50 in [1] was 0.249 µM; in experiment [2] it was 0.0261 µM; in experiment [3], 0.222 µM; in experiment [4] it was 0.0123 µM; in experiment [5], 0.0124 µM; in experiment [6], 0.0781 µM. Also, the GI50 is 0.0152 µM in [7], 0.0342 µM in [8], 0.0443 µM in experiment [9] and 0.0559 µM in experiment [10]. The TGI in experiment [1] is 33.2 µM; in experiment [2] it was 6.92 µM; in experiment [3] it was above 36.3 µM; in experiment [6], above 50 µM; in experiment [7], 4.59 µM; in experiment [8], above 50 µM. Also, the TGI in experiment [9] was 0.778 µM; in experiment [10], 9.94 µM.
For the compound `COC(=O)/C(Br)=C/c1c[nH]c2ccc(Br)cc12`, the GI50 in experiment [1] was 14.4 µM; in experiment [2] it was 11.8 µM; in experiment [3], 12.3 µM; in [4] it was 10.2 µM; in experiment [5], 12.6 µM; in experiment [6], 14.7 µM. Further, the GI50 was 15.3 µM in experiment [7], 10.9 µM in experiment [8] and 10.2 µM in [10]. Moreover, the TGI stood at 33.2 µM in experiment [1]; 43.2 µM in experiment [2]; 29.7 µM in experiment [3]; 32.1 µM in experiment [4]; 27 µM in experiment [5]; 27.8 µM in experiment [6]. Further, the TGI in experiment [7] was found to be 33 µM; in experiment [8], 26.8 µM; in experiment [10], 28.6 µM.
With `COc1ccc(OC)c(/C=C/c2cnnc3ccccc23)c1`, the TGI in experiment [1], in experiment [2], in [3], in experiment [4], in [5] and in experiment [6] was above 10 µM in each case. The TGI in experiment [7], in experiment [8], in [9] and in experiment [10] was above 10 µM throughout.
For the compound `O=C(Nc1cccc(-n2cc(-c3ccncc3)c(-c3ccc(O)c(Cl)c3)n2)c1)Nc1ccc(Cl)c(C(F)(F)F)c1`, the GI50 in [1] was 2.02 µM; in experiment [2], 2.64 µM; in experiment [4], 1.64 µM; in experiment [5], 1.61 µM; in [6], 2.78 µM; in experiment [7] it was 2.1 µM. Also, the GI50 in [8] is 1.8 µM; in [9] it was 1.83 µM; in experiment [10], 1.7 µM. Besides, the TGI in experiment [1] was found to be 4.46 µM; in [2], 10.9 µM; in experiment [4] it was 4.16 µM; in experiment [5], 3.26 µM; in experiment [6], 7.62 µM; in [7] it was 6.5 µM. Besides, the TGI in experiment [8] came to 4.34 µM; in [9], 5.86 µM; in experiment [10], 8.02 µM.
With `N=C1N=Nc2nc(C3(c4nc5n(c4O)C(=N)N=N5)Cc4ccccc4C3=O)c(O)n21` (stereo unspecified), the TGI in experiment [1], in [2], in experiment [3], in experiment [4], in experiment [5] and in experiment [6] was above 100 µM throughout. For the same compound, the TGI in experiment [7], in experiment [8], in [9] and in experiment [10] was above 100 µM throughout. The GI50 is 87.5 µM in experiment [4] and above 100 µM in experiment [10].
Turning to `Cc1cc(Cl)ccc1Nc1nc(C(F)(F)F)ccc1C(=O)N/N=C/c1ccc(F)cc1`, the GI50 was 2.36 µM in experiment [1]; 2.48 µM in experiment [2]; 1.13 µM in experiment [3]; 2.4 µM in [4]; 1.99 µM in experiment [5]; 2.06 µM in [6]. The GI50 was 2.57 µM in experiment [7], 2.64 µM in experiment [8], 2.08 µM in [9] and 1.52 µM in experiment [10]. Moreover, the TGI came out at 7.63 µM in [1]; 10.8 µM in experiment [2]; 8.17 µM in experiment [3]; 8.12 µM in experiment [4]; 5.33 µM in [5]; 13.5 µM in experiment [6]. In addition, the TGI in [7] is 11.5 µM; in experiment [8], 10.5 µM; in experiment [9], 6.01 µM; in experiment [10], 10.6 µM.
`Nc1nn(C(=O)Nc2ccc(Cc3ccccc3)cc2)c2ccccc12`: the GI50 in experiment [1] is 13.5 µM; in experiment [2], 1.69 µM; in experiment [3], 11.2 µM; in experiment [4] it was 2.9 µM; in experiment [5], 2.94 µM; in [6], 3.62 µM. Besides, the GI50 in [7] is 16.8 µM; in experiment [8], 0.555 µM; in [9], 12.9 µM; in experiment [10], 13.9 µM. For the same compound, the TGI in experiment [1] is 58.3 µM; in experiment [2] it was 33.4 µM; in experiment [3], 92 µM; in [4], above 100 µM; in experiment [5], above 100 µM; in experiment [6], 41.5 µM. Also, the TGI in experiment [7] amounted to 83.5 µM; in [8], 8.82 µM; in [9], 48.6 µM; in [10], 30.2 µM.
